Experiment: xn = mol fraction of the nth substance listed
Conditions: Liquid, Vibrating tube method

CCCCCCCC [octane] + CCCCCC
Conditions	mass density [kg/m3]
313.14 K, 18000 kPa, x2 = 0.1654	697.47
313.14 K, 18000 kPa, x2 = 0.5749	683.06
313.14 K, 18000 kPa, x2 = 0.7995	672.32
313.14 K, 18000 kPa, x2 = 0.9308	665.28
313.14 K, 19000 kPa, x2 = 0.1654	698.27
313.14 K, 19000 kPa, x2 = 0.5749	683.89
313.14 K, 19000 kPa, x2 = 0.7995	673.21
313.14 K, 19000 kPa, x2 = 0.9308	666.2
313.14 K, 20000 kPa, x2 = 0.1654	699.05
313.14 K, 20000 kPa, x2 = 0.5749	684.72
313.14 K, 20000 kPa, x2 = 0.7995	674.07
313.14 K, 20000 kPa, x2 = 0.9308	667.1
313.14 K, 21000 kPa, x2 = 0.1654	699.81
313.14 K, 21000 kPa, x2 = 0.5749	685.52
313.14 K, 21000 kPa, x2 = 0.7995	674.92
313.14 K, 21000 kPa, x2 = 0.9308	667.97
313.14 K, 22000 kPa, x2 = 0.1654	700.55
313.14 K, 22000 kPa, x2 = 0.5749	686.32
313.14 K, 22000 kPa, x2 = 0.7995	675.74
313.14 K, 22000 kPa, x2 = 0.9308	668.8
313.14 K, 23000 kPa, x2 = 0.1654	701.28
313.14 K, 23000 kPa, x2 = 0.5749	687.1
313.14 K, 23000 kPa, x2 = 0.7995	676.52
313.14 K, 23000 kPa, x2 = 0.9308	669.6
313.14 K, 24000 kPa, x2 = 0.1654	701.98
313.14 K, 24000 kPa, x2 = 0.5749	687.85
313.14 K, 24000 kPa, x2 = 0.7995	677.27
313.14 K, 24000 kPa, x2 = 0.9308	670.36
313.14 K, 25000 kPa, x2 = 0.1654	702.7
313.14 K, 25000 kPa, x2 = 0.5749	688.59
313.14 K, 25000 kPa, x2 = 0.7995	677.99
313.14 K, 25000 kPa, x2 = 0.9308	671.1
323.06 K, 1000 kPa, x2 = 0.5749	658.22
323.06 K, 2000 kPa, x2 = 0.5749	659.25
323.06 K, 3000 kPa, x2 = 0.5749	660.31
323.06 K, 4000 kPa, x2 = 0.5749	661.34
323.06 K, 5000 kPa, x2 = 0.5749	662.42
323.06 K, 6000 kPa, x2 = 0.5749	663.46
323.06 K, 7000 kPa, x2 = 0.5749	664.53
323.06 K, 8000 kPa, x2 = 0.5749	665.61
323.06 K, 9000 kPa, x2 = 0.5749	666.67
323.06 K, 10000 kPa, x2 = 0.5749	667.73
323.06 K, 11000 kPa, x2 = 0.5749	668.78
323.06 K, 12000 kPa, x2 = 0.5749	669.81
323.06 K, 13000 kPa, x2 = 0.5749	670.83
323.06 K, 14000 kPa, x2 = 0.5749	671.84
323.06 K, 15000 kPa, x2 = 0.5749	672.81
323.06 K, 16000 kPa, x2 = 0.5749	673.78
323.06 K, 17000 kPa, x2 = 0.5749	674.72
323.06 K, 18000 kPa, x2 = 0.5749	675.63
323.06 K, 19000 kPa, x2 = 0.5749	676.52
323.06 K, 20000 kPa, x2 = 0.5749	677.38
323.06 K, 21000 kPa, x2 = 0.5749	678.25
323.06 K, 22000 kPa, x2 = 0.5749	679.1
323.06 K, 23000 kPa, x2 = 0.5749	679.9
323.06 K, 24000 kPa, x2 = 0.5749	680.71
323.06 K, 25000 kPa, x2 = 0.5749	681.47
323.07 K, 1000 kPa, x2 = 0.2199	672.17
323.07 K, 2000 kPa, x2 = 0.2199	673.14
323.07 K, 3000 kPa, x2 = 0.2199	674.14
323.07 K, 4000 kPa, x2 = 0.2199	675.13
323.07 K, 5000 kPa, x2 = 0.2199	676.14
323.07 K, 6000 kPa, x2 = 0.2199	677.12
323.07 K, 7000 kPa, x2 = 0.2199	678.12
323.07 K, 8000 kPa, x2 = 0.2199	679.13
323.07 K, 9000 kPa, x2 = 0.2199	680.12
323.07 K, 10000 kPa, x2 = 0.2199	681.12
323.07 K, 11000 kPa, x2 = 0.2199	682.09
323.07 K, 12000 kPa, x2 = 0.2199	683.06
323.07 K, 13000 kPa, x2 = 0.2199	684.02
323.07 K, 14000 kPa, x2 = 0.2199	684.97
323.07 K, 15000 kPa, x2 = 0.2199	685.89
323.07 K, 16000 kPa, x2 = 0.2199	686.79
323.07 K, 17000 kPa, x2 = 0.2199	687.68
323.07 K, 18000 kPa, x2 = 0.2199	688.54
323.07 K, 19000 kPa, x2 = 0.2199	689.38
323.07 K, 20000 kPa, x2 = 0.2199	690.21
323.07 K, 21000 kPa, x2 = 0.2199	691.03
323.07 K, 22000 kPa, x2 = 0.2199	691.83
323.07 K, 23000 kPa, x2 = 0.2199	692.58
323.07 K, 24000 kPa, x2 = 0.2199	693.35
323.07 K, 25000 kPa, x2 = 0.2199	694.1
323.08 K, 1000 kPa, x2 = 0.1654	674.04
323.08 K, 2000 kPa, x2 = 0.1654	675.02
323.08 K, 3000 kPa, x2 = 0.1654	676
323.08 K, 4000 kPa, x2 = 0.1654	676.97
323.08 K, 5000 kPa, x2 = 0.1654	677.97
323.08 K, 6000 kPa, x2 = 0.1654	678.97
323.08 K, 7000 kPa, x2 = 0.1654	679.95
323.08 K, 8000 kPa, x2 = 0.1654	680.93
323.08 K, 9000 kPa, x2 = 0.1654	681.93
323.08 K, 10000 kPa, x2 = 0.1654	682.9
323.08 K, 11000 kPa, x2 = 0.1654	683.88
323.08 K, 12000 kPa, x2 = 0.1654	684.84
